Assays:
[1] = Displacement of [3H]AMPA from AMPA receptor in rat synaptic membrane; assay type: cell membranes
[2] = Displacement of [3H]kainic acid from Kainate receptor in rat synaptic membrane; assay type: cell membranes
[3] = tested on: Mus musculus; assay: Epileptogenic activity in mouse, icv; assay type: functional

In the case of `N[C@@H](C[C@]1(C(=O)O)C[C@H]2OC[C@@H](O)[C@@H](O)[C@H]2O1)C(=O)O` [NEODYSIHERBAINE A], the Ki [1] is reported as 0.151 µM, the Ki [2] is reported as 0.052 µM and the ED50 [3] is reported as 16 pmol.

`N[C@@H](C[C@]1(C(=O)O)C[C@H]2O[C@H](CO)[C@@H](O)[C@@H](O)[C@H]2O1)C(=O)O` [10-HYDROXY-METHYL-NEODYSIHERBAINE A] showed a Ki [1] of 0.153 µM, a Ki [2] of 0.79 µM and an ED50 [3] of 110 pmol.

For `CN[C@H]1[C@H]2O[C@@](C[C@H](N)C(=O)O)(C(=O)O)C[C@H]2OC[C@H]1O` [DYSIHERBAINE], the Ki [1] was 0.153 µM, the Ki [2] was 0.026 µM and the ED50 [3] was 13 pmol.

Reference: ChEMBL document CHEMBL1139718, “Design, total synthesis, and biological evaluation of neodysiherbaine A derivative as potential probes” (Bioorg Med Chem Lett, 2006)
